The source of these data is article PMC11527929 (European Journal of Nuclear Medicine and Molecular Imaging, 2024).

Structures are written as SMILES.

Data set [1] relates to H446 cells. Description: Clonogenic assay. In kind it is cell-based, human. As to conditions: 0.5 µM PARPi 72 h and/or 12.5 kBq [177Lu]Lu-DOTA-TOC 24 h, colonies after 7 days, mean of 2 independent experiments. As for the experimental part:
H446 cells were seeded in 6-well plates 48 h prior to the experiment. […] Following treatment, compounds were removed, and fresh medium was added. After 7 days, colonies were fixed with cold methanol, stained with 5% crystal violet in PBS and subsequently counted. Survival fractions were calculated by dividing the plating efficiency as counted colonies divided by seeded cells of the respective treatment group through the plating efficiency of the untreated control group.

Data set [2] relates to H69 xenografts. Description: In vivo treatment study, single PRRT dose. Conditions: for tumor doubling time: PARPi 10 mg/kg i.p. days 1–5 and 8–12, PRRT ~40 MBq single dose on day 3, untreated 3.6 days; for time after start of treatment to mean tumor volume of 400 mm^3: untreated 10 days. Further details: species or system athymic nude mice. As for the experimental part:
Authorization for all animal experiments was obtained from the Regierung von Oberbayern. Mice were housed under specific-pathogen free conditions with access to mouse chow and water ad libitum. […] Animals were regularly monitored as defined in the license.
Mice in the PARPi and combination therapy groups received daily i.p. injections of PARPi on days 1–5 and 8–12 at a dose of 10 mg/kg. […] Length, width and depth of the subcutaneous tumors were measured daily using a caliper and tumor volume was calculated using the ellipsoid formula. Mice were weighed regularly after start of the treatment. Mice were euthanized when they reached pre-defined criteria. […] In the H69 cohort, one animal per group was euthanized 3 days after PRRT (or equivalent time) and tumor, bone and kidney tissues were processed for histopathology.

Data set [3] deals with H446 cells. Description: Cell viability, AlamarBlue HS assay. Conditions: Homo sapiens, NCI-H446, PARPi alone for 72 h, 3 independent experiments. Type of data set: cell-based. As for the experimental part: (§1) Cell viability was determined using the AlamarBlue high sensitivity (HS) assay (Thermo Fisher Scientific, #A50101). 5,000 cells per well were seeded in 96-well black clear F-bottom plates (H446) or 96-well black clear V-bottom plates (H69). H69 suspension cells were centrifuged and resuspended for each washing step. […] All wells, including untreated wells, contained 0.5% (v/v) DMSO throughout the assay. 96 h after seeding, medium was removed and resazurin (AlamarBlue HS) solution was added to each well at a final concentration of 10% (v/v) and incubated for 1 h at 37 °C before fluorescence was measured using a Biotek Synergy HT plate reader (Excitation: 540/35 nm, Emission: 590/20 nm). Relative viability was calculated in relation to “untreated” wells. We carried out three biological repeats with 3–6 technical replicates per plate. IC50-values were computed by applying the nonlinear regression function (Dose–response – Inhibition; Inhibitor vs. normalized response) in GraphPad Prism 9.
For orientation: Resazurin is reduced to fluorescent resorufin, in cell work by metabolically active cells.

For a further data set, the system named is H69 cells. Description: Cell viability, AlamarBlue HS assay. Type of data set: cell-based. Conditions: Homo sapiens, NCI-H69, PARPi alone for 72 h, 3 independent experiments. As for the experimental part:
as §1

The next data set has as its system H446 xenografts. Description: In vivo treatment study, single PRRT dose. As to conditions: for tumor doubling time: PARPi 10 mg/kg i.p. days 1–5 and 8–12, PRRT ~40 MBq single dose on day 3, untreated 3.6; for median survival: single PRRT dose study, untreated 12 days. Further details: species or system athymic nude mice. As for the experimental part:
(§2) Authorization for all animal experiments was obtained from the Regierung von Oberbayern. Mice were housed under specific-pathogen free conditions with access to mouse chow and water ad libitum. Female 7–8 weeks old athymic nude mice (Crl:NU/NCr-Foxn1nu, Charles River Laboratories, Sulzfeld) were subcutaneously injected with 1–4 × 10^6 H69 or H446 cells in 1:1 RPMI-1640 medium:Matrigel (Corning Inc., #11543550). Animals were regularly monitored as defined in the license.
(§3) 10–15 days after xenografting, mice were randomized into 4 (H446) or 6 (H69) groups after stratification for tumor size to ensure a uniform initial tumor size distribution (H446: ~ 150 mm^3; H69: ~ 60 mm^3; Supplementary Fig. 2A, B). Mice in the PARPi and combination therapy groups received daily i.p. injections of PARPi on days 1–5 and 8–12 at a dose of 10 mg/kg. […] Length, width and depth of the subcutaneous tumors were measured daily using a caliper and tumor volume was calculated using the ellipsoid formula. Mice were weighed regularly after start of the treatment. Mice were euthanized when they reached pre-defined criteria. During the study, only the criteria of tumor growth (single dimension ≤ 15 mm) or maximum observation time came into effect. In the H69 cohort, one animal per group was euthanized 3 days after PRRT (or equivalent time) and tumor, bone and kidney tissues were processed for histopathology.

In a further data set the test system is bone marrow and kidney. Description: Histopathology (H&E) after in vivo treatment. Further details: species or system athymic nude mice. As to conditions: H69 cohort, single dose study; day 3 after PRRT; one animal per group. As for the experimental part: as §3
All samples were fixated in 4% PFA for 24 h and subsequently stored in 70% ethanol at 4 °C until the radioactivity had fully decayed. Samples containing bone for bone marrow analysis were decalcified using OSTEOSOFT® (Merck) solution. Formalin-fixed paraffin embedded (FFPE) tissues were cut into 2 µm sections using a microtome. After deparaffinization and rehydration, tissue sections were subjected to standard H&E staining. Tumor sections were additionally subjected to IHC. […]

In data set [4] the test system is H69 xenografts. Description: In vivo treatment study, fractionated PRRT dose. Further details: species or system athymic nude mice. As to conditions: three-fractionated arm: 3 × 20 MBq PRRT days 3, 9, 15, Olaparib 10 mg/kg i.p. days 1–5, 7–11, 13–17, untreated 27 days. As for the experimental part:
as §2
Prior to the beginning of treatment, mice were randomly assigned to 7 treatment groups (n = 5–6 animals/group) with an initial mean tumor volume of approx. 50 mm^3 per group (Supplementary Fig. 2C). […] Body weight and tumor volumes were determined every 2–3 days. Animals were sacrificed when pre-defined endpoint criteria or humane endpoint was reached. In this study, only the pre-defined endpoint, a tumor volume of 1000 mm^3 with a maximal size of ≤ 15 mm in a single dimension, was reached. After a maximum observation period of 4 weeks after the last treatment, the study terminated in accordance with the animal protocol.

In a further data set the test system is SCLC. As to conditions: six SCLC patients; no response on CT scans; cited from earlier work. The text has this:
An alternative therapeutic approach for extended-stage disease could be peptide-receptor radionuclide therapy (PRRT) with somatostatin receptor (SSTR) ligands. The vast majority of SCLC (> 80%) express neuroendocrine markers, and about 50% of all SCLCs express significant levels of somatostatin-receptor type 2 (SSTR2). […] To date, clinical outcomes of retrospective series, which investigated SSTR2-targeted PRRT in SCLC have been rather inconclusive. In one trial, six patients treated with ^90Y-D ...

By IC50 is commonly meant the concentration at which inhibition is half-maximal.

Consider `O=C(c1cc(Cc2n[nH]c(=O)c3ccccc23)ccc1F)N1CCN(C(=O)C2CC2)CC1` [Olaparib], for which, in the data set with H446 cells [1], the “mean surviving fraction, of untreated cells” value came out at 7%. For the same molecule, the tumor doubling time in the data set with H69 xenografts [2] was determined as 4.0 days. For the same molecule, the “time after start of treatment to mean tumor volume of 400 mm^3” value (from here on “time after start of treatment”) in the data set with H69 xenografts [2] (single PRRT dose study) amounted to 13 days. Besides, the half-inhibitory concentration (IC50) in the data set on H446 cells [3] and in the data set with H69 cells was 20 to 40 µM each time.

As to `CNCc1ccc(-c2[nH]c3cc(F)cc4c3c2CCNC4=O)cc1` [Rucaparib], the tumor doubling time in the data set with H446 xenografts came out at 3.9 days; in the data set on H69 xenografts [2] it was 4.1 days. In addition, the median survival with H446 xenografts is listed as 13 days. Moreover, in the data set with H446 cells [1], the “mean surviving fraction, of untreated cells” value was 13%. For the same molecule, the “time after start of treatment” value with H69 xenografts [2] (single PRRT dose study) is 13 days. For the same molecule, in the data set on bone marrow and kidney, the “angiectasis in the bone marrow (H&E)” value is “low levels of angiectasis”. In addition, the “bone marrow cellularity (H&E)” value in the data set with bone marrow and kidney is “slight bone marrow hypercellularity”. In addition, the IC50 in the data set with H446 cells [3] and with H69 cells was 20 to 40 µM throughout.

As for `C[C@@H](O)[C@@H]1NC(=O)[C@H](CCCCN)NC(=O)[C@@H](Cc2c[nH]c3ccccc23)NC(=O)[C@H](Cc2ccc(O)cc2)NC(=O)[C@@H](NC(=O)[C@@H](Cc2ccccc2)NC(=O)CN2CCN(CC(=O)O)CCN(CC(=O)O)CCN(CC(=O)O)CC2)CSSC[C@@H](C(=O)N[C@H](CO)[C@@H](C)O)NC1=O` [[^177Lu]Lu-DOTA-TOC, metal not drawn], the median survival is on record as 34 days in the data set on H69 xenografts [4]; 11 days in the data set with H446 xenografts; 24 days in the data set with H69 xenografts [2] (single PRRT dose study, untreated 18 days). For the same molecule, the results for the tumor doubling time with H446 xenografts and in the data set on H69 xenografts [2] were 3.7 days and 6.4 days, respectively. In the data set with H69 xenografts [2] (single PRRT dose study), the “time after start of treatment” value is 17 days.

As for `C[C@@H](O)[C@@H]1NC(=O)[C@H](CCCCN)NC(=O)[C@@H](Cc2c[nH]c3ccccc23)NC(=O)[C@H](Cc2ccc(O)cc2)NC(=O)[C@@H](NC(=O)[C@@H](Cc2ccccc2)NC(=O)CN2CCN(CC(=O)[O-])CCN(CC(=O)[O-])CCN(CC(=O)[O-])CC2)CSSC[C@@H](C(=O)N[C@H](CO)[C@@H](C)O)NC1=O.[90Y+3]` [^90Y-DOTATOC], the median progression-free survival in the data set on SCLC is on record as 38 days.
